The record followed here is patent US10294234B2, “HIV inhibitor compounds” (priority 2017, dated 2019).

By EC50 is commonly meant the concentration that produces a half-maximal response.

SMILES strings stand for the structures.

For the first experiment, the system named is HIV-1 (IIIB) in MT-4 cells. The experiment in a line: MT-4 HIV assay. The class given is cell-based. Conditions: Human immunodeficiency virus 1, MT4, 120 h. Summed up: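 MT-4 cells infected with HIV-1 IIIB (1:250 stock dilution) were incubated with 1:3 serially diluted compounds in RPMI with 10% FBS for 5 days at 37 °C. Cell Titer Glo luminescence was the readout. Plates included mock-infected wells, no-drug wells and 5 uM AZT controls.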
As to `COC(=O)N[C@H](C(=O)N[C@H](C(=O)N[C@@H](Cc1ccc(C#Cc2cnc(N3CC4CC(C3)N4C3COC3)nc2)cc1)[C@@H](O)CN(Cc1c(F)cc(-c2ccn(CC(F)F)n2)cc1F)NC(=O)[C@@H](NC(=O)OC)C(C)(C)C)C(C)(C)C)C(C)C` [Example 222, Methyl ((5S,8S,11S,12S,17S)-8-(tert-butyl)-14-(4-(1-(2,2-difluoroethyl)-1H-pyrazol-3-yl)-2,6-difluorobenzyl)-12-hydroxy-5-isopropyl-18,18-dimethyl-11-(4-((2-(6-(oxetan-3-yl)-3,6-diazabicyclo[3.1.1]heptan-3-yl)pyrimidin-5-yl)ethynyl)benzyl)-3,6,9,16-tetraoxo-2-oxa-4,7,10,14,15-pentaazanonadecane-17-yl)carbamate], the EC50 is 12.9 nM.

For the compound `COC(=O)N[C@H](C(=O)N[C@H](C(=O)N[C@@H](Cc1ccc(C#Cc2cnc(N3CC4CC(C3)N4C3COC3)nc2)cc1)[C@@H](O)CN(Cc1c(F)cc(-c2ccn(CC(F)F)n2)cc1F)NC(=O)[C@@H](NC(=O)OC)C(C)(C)C)C(C)(C)C)C(C)(C)C` [Example 223, Methyl ((5S,8S,11S,12S,17S)-5,8-di-tert-butyl-14-(4-(1-(2,2-difluoroethyl)-1H-pyrazol-3-yl)-2,6-difluorobenzyl)-12-hydroxy-18,18-dimethyl-11-(4-((2-(6-(oxetan-3-yl)-3,6-diazabicyclo[3.1.1]heptan-3-yl)pyrimidin-5-yl)ethynyl)benzyl)-3,6,9,16-tetraoxo-2-oxa-4,7,10,14,15-pentaazanonadecane-17-yl)carbamate], the midpoint of the response, the EC50, lay at 12.9 nM.

In turn, `COC(=O)N[C@H](C(=O)N[C@@H](Cc1ccc(C#Cc2ccc(N3CCN(C(C)=O)CC3)nc2)cc1)[C@@H](O)CN(Cc1c(F)cc(-c2ccn(C)n2)cc1F)NC(=O)[C@@H](NC(=O)OC)C(C)(C)C)C(C)(C)C` [Example 228] displayed a concentration giving a half-maximal response (EC50) of 1.66 nM.

Staying with this experiment, now noted: Human immunodeficiency virus 1, MT4, 120 h; HIV-1 (IIIB), MT-4 cells, 5 days, Cell Titer Glo; read-out: EC50.
As to `COC(=O)N[C@H](C(=O)N[C@@H](Cc1ccc(-c2cnn(C(F)F)c2)cc1)[C@@H](O)CN(Cc1c(F)cc(-c2cnn(C(F)F)c2)cc1F)NC(=O)[C@@H](NC(=O)OC)C(C)(C)C(F)(F)F)C(C)(C)C(F)(F)F` [Example 211, Methyl ((5S,8S,9S,14S)-11-(4-(1-(difluoromethyl)-1H-pyrazol-4-yl)-2,6-difluorobenzyl)-8-(4-(1-(difluoromethyl)-1H-pyrazol-4-yl)benzyl)-16,16,16-trifluoro-9-hydroxy-15,15-dimethyl-3,6,13-trioxo-5-(1,1,1-trifluoro-2-methylpropan-2-yl)-2-oxa-4,7,11,12-tetraazahexadecan-14-yl)carbamate], the 50% effective concentration (EC50) came to 5.75 nM.

As to `CC(C)([C@H](NC(=O)C1CC1)C(=O)N[C@@H](Cc1ccc(-c2cnn(C(F)F)c2)cc1)[C@@H](O)CN(Cc1c(F)cc(-c2ccn(C(F)F)n2)cc1F)NC(=O)[C@@H](NC(=O)C1CC1)C(C)(C)C(F)(F)F)C(F)(F)F` [Example 213, N—((S)-1-(2-((2S,3S)-3-((S)-2-(cyclopropanecarboxamido)-4,4,4-trifluoro-3,3-dimethylbutanamido)-4-(4-(1-(difluoromethyl)-1H-pyrazol-4-yl)phenyl)-2-hydroxybutyl)-2-(4-(1-(difluoromethyl)-1H-pyrazol-3-yl)-2,6-difluorobenzyl)hydrazinyl)-4,4,4-trifluoro-3,3-dimethyl-1-oxobutan-2-yl)cyclopropanecarboxamide], the EC50 was determined as 4.86 nM.

Consider `CCC(=O)N[C@H](C(=O)N[C@@H](Cc1ccc(-c2cnn(C(F)F)c2)cc1)[C@@H](O)CN(Cc1c(F)cc(-c2cnn(C(F)F)c2)cc1F)NC(=O)[C@@H](NC(=O)CC)C(C)(C)C(F)(F)F)C(C)(C)C(F)(F)F` [Example 215, (S)—N-((2S,3S)-4-(1-(4-(1-(difluoromethyl)-1H-pyrazol-4-yl)-2,6-difluorobenzyl)-2-((S)-4,4,4-trifluoro-3,3-dimethyl-2-propionamidobutanoyl)hydrazinyl)-1-(4-(1-(difluoromethyl)-1H-pyrazol-4-yl)phenyl)-3-hydroxybutan-2-yl)-4,4,4-trifluoro-3,3-dimethyl-2-propionamidobutanamide], for which the EC50 was 18.2 nM.

Turning to `CC1(C(=O)N[C@H](C(=O)N[C@@H](Cc2ccc(-c3cnn(C(F)F)c3)cc2)[C@@H](O)CN(Cc2c(F)cc(-c3cnn(C(F)F)c3)cc2F)NC(=O)[C@@H](NC(=O)C2(C)CC2)C(C)(C)C(F)(F)F)C(C)(C)C(F)(F)F)CC1` [Example 216, N—((S)-1-(2-(4-(1-(difluoromethyl)-1H-pyrazol-4-yl)-2,6-difluorobenzyl)-2-((2S,3S)-4-(4-(1-(difluoromethyl)-1H-pyrazol-4-yl)phenyl)-2-hydroxy-3-((S)-4,4,4-trifluoro-3,3-dimethyl-2-(1-methylcyclopropane-1-carboxamido)butanamido)butyl)hydrazinyl)-4,4,4-trifluoro-3,3-dimethyl-1-oxobutan-2-yl)-1-methylcyclopropane-1-carboxamide], the concentration giving a half-maximal response (EC50) came out at 114 nM.

Turning to `CC(=O)N[C@H](C(=O)N[C@@H](Cc1ccc(-c2cnn(C(F)F)c2)cc1)[C@@H](O)CN(Cc1c(F)cc(-c2cnn(C(F)F)c2)cc1F)NC(=O)[C@@H](NC(C)=O)C(C)(C)C(F)(F)F)C(C)(C)C(F)(F)F` [Example 217, (S)-2-acetamido-N-((2S,3S)-4-(2-((S)-2-acetamido-4,4,4-trifluoro-3,3-dimethylbutanoyl)-1-(4-(1-(difluoromethyl)-1H-pyrazol-4-yl)-2,6-difluorobenzyl)hydrazinyl)-1-(4-(1-(difluoromethyl)-1H-pyrazol-4-yl)phenyl)-3-hydroxybutan-2-yl)-4,4,4-trifluoro-3,3-dimethylbutanamide], the EC50 was 113 nM.

Take `COC(=O)N[C@H](C(=O)NN(Cc1c(F)cc(-c2ccccn2)cc1F)C[C@H](O)[C@H](Cc1ccc(C#Cc2ccc(N3CC4CCC(C3)N4C(=O)[C@@H]3CCCO3)nc2)cc1)NC(=O)[C@@H](NC(=O)OC)C(C)(C)C(F)(F)F)C(C)(C)C` [Example 224, Methyl ((5S,8S,9S,14S)-11-(2,6-difluoro-4-(pyridin-2-yl)benzyl)-9-hydroxy-15,15-dimethyl-3,6,13-trioxo-8-(4-((6-(8-((S)-tetrahydrofuran-2-carbonyl)-3,8-diazabicyclo [3.2.1]octan-3-yl)pyridin-3-yl)ethynyl)benzyl)-5-(1,1,1-trifluoro-2-methylpropan-2-yl)-2-oxa-4,7,11,12-tetraazahexadecan-14-yl)carbamate]: the EC50 was found to be 4.12 nM.

`COC(=O)N[C@H](C(=O)N[C@@H](Cc1ccc(C#Cc2ccc(N3CC4CCC(C3)N4C(=O)[C@@H]3CCCO3)nc2)cc1)[C@@H](O)CN(Cc1c(F)cc(-c2ccccn2)cc1F)NC(=O)[C@@H](NC(=O)OC)C(C)(C)C)C(C)(C)C` [Example 225, Methyl ((5S,8S,9S,14S)-5-(tert-butyl)-11-(2,6-difluoro-4-(pyridin-2-yl)benzyl)-9-hydroxy-15,15-dimethyl-3,6,13-trioxo-8-(4-((6-(8-((S)-tetrahydrofuran-2-carbonyl)-3,8-diazabicyclo[3.2.1]octan-3-yl)pyridin-3-yl)ethynyl)benzyl)-2-oxa-4,7,11,12-tetraazahexadecan-14-yl)carbamate]: the EC50 is 4.26 nM.

Turning to `COC(=O)N[C@H](C(=O)N[C@@H](Cc1ccc(C#Cc2ccc(N3CC4CCC(C3)N4c3ncccn3)nc2)cc1)[C@@H](O)CN(Cc1c(F)cc(-c2ccn(C)n2)cc1F)NC(=O)[C@@H](NC(=O)OC)C(C)(C)C)C(C)(C)C` [Example 226], the concentration giving a half-maximal response (EC50) turned out to be 14.9 nM.

Consider `COC(=O)N[C@H](C(=O)N[C@@H](Cc1ccc(C#Cc2ccc(N3CC4CCC(C3)N4C(=O)[C@@H]3CCCO3)nc2)cc1)[C@@H](O)CN(Cc1c(F)cc(-c2ccn(C)n2)cc1F)NC(=O)[C@@H](NC(=O)OC)C(C)(C)C)C(C)(C)C` [Example 227, Methyl ((5S,8S,9S,14S)-5-(tert-butyl)-11-(2,6-difluoro-4-(1-methyl-1H-pyrazol-3-yl)benzyl)-9-hydroxy-15,15-dimethyl-3,6,13-trioxo-8-(4-((6-(8-((S)-tetrahydrofuran-2-carbonyl)-3,8-diazabicyclo[3.2.1]octan-3-yl)pyridin-3-yl)ethynyl)benzyl)-2-oxa-4,7,11,12-tetraazahexadecan-14-yl)carbamate], for which the concentration giving a half-maximal response (EC50) amounted to 2.9 nM.

As to `COC(=O)N[C@H](C(=O)NN(Cc1ccc(-c2cnn(C(F)F)c2)cc1F)C[C@H](O)[C@H](Cc1ccc(C#Cc2ccc(N3CC4CCC(C3)N4C3COC3)nc2)cc1)NC(=O)[C@@H](NC(=O)OC)C(C)(C)C(F)(F)F)C(C)(C)C` [Example 230, methyl ((5S,8S,9S,14S)-11-(4-(1-(difluoromethyl)-1H-pyrazol-4-yl)-2-fluorobenzyl)-9-hydroxy-15,15-dimethyl-8-(4-((6-(8-(oxetan-3-yl)-3,8-diazabicyclo[3.2.1]octan-3-yl)pyridin-3-yl)ethynyl)benzyl)-3,6,13-trioxo-5-(1,1,1-trifluoro-2-methylpropan-2-yl)-2-oxa-4,7,11,12-tetraazahexadecan-14-yl)carbamate], the EC50 was found to be 3.97 nM.

Turning to `COC(=O)N[C@H](C(=O)N[C@@H](Cc1ccc(C#Cc2ccc(N3CC4CCC(C3)N4C3COC3)nc2)cc1)[C@@H](O)CN(Cc1c(F)cc(-c2ccccn2)cc1Cl)NC(=O)[C@@H](NC(=O)OC)C(C)(C)CF)C(C)(C)CF` [Example 234, methyl ((5S,8S,9S,14S)-11-(2-chloro-6-fluoro-4-(pyridin-2-yl)benzyl)-16-fluoro-5-(1-fluoro-2-methylpropan-2-yl)-9-hydroxy-15,15-dimethyl-8-(4-((6-(8-(oxetan-3-yl)-3,8-diazabicyclo[3.2.1]octan-3-yl)pyridin-3-yl)ethynyl)benzyl)-3,6,13-trioxo-2-oxa-4,7,11,12-tetraazahexadecan-14-yl)carbamate], the half-maximal effective concentration (EC50) came out at 2.54 nM.
